Data as given in article PMC7661526, “Antibiofilm effects of N,O-acetals derived from 2-amino-1,4-naphthoquinone are associated with downregulation of important global virulence regulators in methicillin-resistant Staphylococcus aureus” (Scientific Reports, 2020).
≈ marks a conversion by molar mass, not a printed value.

Assays:
sigB = assay: Real-time RT-qPCR of global regulators; type: cell-based, Staphylococcus aureus
in vitro = conditions: human, pH 7.4
Protocol: (§1) Erythrocytes were collected from three human volunteers in a citrate tube and washed three times (3×) with PBS (pH 7.4). All derivatives were incubated with the PBS-erythrocyte suspension for 3 h at 37 °C. The hemolysis with the release of hemoglobin was quantified by the spectrophotometric reading of the supernatant at 545 nm. Hemolysis less than 10% represented hemocompatibility and non-toxicity against erythrocyte membranes. For the positive control, the human erythrocytes were lysed with 1% (v/v) Triton X-100. The negative control was performed with 1% (v/v) DMSO only (final concentration). […] All methods were carried out in accordance with relevant guidelines and regulations. In addition, informed consent was obtained from all volunteers. Three independent experiments were performed in triplicate.

[1] = system: MRSA strain CR15-071 (USA100) cells persistent to vancomycin; assay: Vancomycin-persistent cells, high bacterial load on TSA plates; type: cell-based, Staphylococcus aureus; conditions: 1MIC derivative (128 µg/mL) plus vancomycin 4MIC (8 µg/mL), ~10^9 CFU/ml
Protocol: For this test, we choose the MRSA strain CR15-071 representative of the ST5-SCCmecII lineage (NY/Japan-USA100 clone), since this MRSA has replaced the ST239-SCCmecIII (the Brazilian clone) in this country, and is now the most frequent MRSA lineage in Brazilian hospitals. […]. The plates were incubated at 37 °C/24 h before being examined. […]. Bacterial growth was determined by removing persistent cells from the plates and determining UFC/ml. Controls were also performed using 2% (v/v) DMSO only. Three independent experiments were performed in triplicate.

S. aureus ATCC 25923 = assay: Disk diffusion test; type: cell-based, Staphylococcus aureus
Source text: Strain representatives of six globally spread clones/lineages of MRSA were used in this study to test the antimicrobial activity of the N,O-acetal derivatives against MRSA: NY/Japan-USA100/ST5-SCCmecII (strain CR15-071), USA300/ST8-SCCmecIV (strain USA300-0114), USA400/ST1-SCCmecIV (strain USA400-0051), Brazilian epidemic clone-BEC/ST239-SCCmecIII (strain BMB9393), pediatric clone-USA800/ST5-SCCmecIV (strain USA800-0179), and OSPC-USA1100/ST30-SCCmecIV (strain 07-040). The S. aureus ATCC 25923 was used as a control for the experiment of drug susceptibility. […] For biofilm production, tryptic soy broth (TSB; BD, Franklin Lakes, NJ, USA) was supplemented with 1% (w/v) glucose (TSB-Glu). Tryptic soy agar (TSA; BD) was used for bacterial growth. The Mueller-Hinton broth (MHB; BD) and Mueller-Hinton agar (MHA; BD) was used for susceptibility tests. All strains were maintained in 10% (v/v) glycerol stocks and stored at − 80 °C.
The antibacterial activity of 6a and its derivatives 7a, 7b, and 7c was tested as previously described using paper disks impregnated with each compound[13]. The derivatives were also analyzed quantitatively using microdilution assays in 96-well inert polystyrene microtiter plates (Nuclon; Nalge Nunc International, Rochester, NY, USA) to determine the minimal inhibitory concentration (MIC)[14]. Biological control, as well as growth conditions, were performed following CLSI recommendation[15],[16]. […] Controls were also performed using 2% (v/v) DMSO only.

[2] = system: MRSA strain BMB9393 biofilm; assay: Confocal laser scanning microscopy (CLSM) of biofilm; type: cell-based, Staphylococcus aureus; conditions: 1/4MIC (7b 32 µg/mL, 7c 16 µg/mL); SYTO 9; compared with untreated biofilms
Protocol: For CLSM experiments, after 24 h of incubation, the supernatant containing planktonic cells was gently removed, and biofilm treated with 25 nM SYTO 9 DNA-intercalating stain (Invitrogen; Carlsbad, CA, EUA), as previously described. Before visualization, SYTO 9 solution was removed and the material visualized using a confocal laser scanning microscope (Model LSM510 Carl Zeiss Meditec; Jena, Germany). The microscope was configured with the argon laser (458 nm/477 nm/488 nm/514 nm). The images were randomly captured with the […]. Controls were performed using 2% (v/v) DMSO only (final concentration). Three independent experiments were performed in quadruplicate.

Cytotoxicity assay (MTT) = conditions: African green monkey, Vero cell monolayers
Protocol: (§2) Plates were incubated for 1 h, the supernatant again removed, and 200 µL dimethyl sulfoxide (DMSO) were added to each well to dissolve the formazan crystals for 10 min. Absorbance was measured at 570 nm using an ELISA reader (Thermo Plate, TP-READER, Thermo Fisher Scientific). […] The selectivity index (SI) was calculated as follows: SI (µg/mL) = CC50/MIC[17]. Three independent experiments were performed in triplicate. Controls were performed using 2% (v/v) DMSO only.

human erythrocytes = assay: Hemocompatibility assay; conditions: highest concentration evaluated (300 µg/mL), 3 h at 37 °C
Protocol: as §1

Vero cell line = assay: Cytotoxicity assay (MTT); conditions: Vero cells, 24 h, MTT
Protocol: as §2

| SMILES | Increase of sigB transcripts (sigB) | hemolysis at 3 h, 300 µg/mL (in vitro) [%] | Reduction in the total of vancomycin-persistent cells [1] | Inhibition zone (S. aureus ATCC 25923) [mm] | Biofilm accumulation by CLSM [2] | CC50 at 24 h (Cytotoxicity assay (MTT)) [µg/mL] | Hemolysis, maximum values (human erythrocytes) [%] | CC50 (Vero cell line) [µg/mL] |
| --- | --- | --- | --- | --- | --- | --- | --- | --- |
| CCOCNC1=CC(=O)c2ccccc2C1=O [7b, 2-(ethoxymethyl)-amino-1,4-naphthoquinone] | did not affect | 2.7 ± 0.3 | complete inhibition of persistent cells | 12.5±3.5 | decrease biofilm accumulation massively | 219.9 ± 1.87 (≈ 951 µM) | – | – |
| C#CCOCNC1=CC(=O)c2ccccc2C1=O [7c, 2-(propynyloxymethyl)-amino-1,4-naphthoquinone] | 57.22 ± 5.2% | – | – | 14±3.4 | decrease biofilm accumulation massively | – | 1.5 ± 0.5 | 20.15 ± 2.11 (≈ 83.5 µM) |
